# Legend:
# LAB = tested on: LAB; set-up: method as in earlier work; conditions: concentrations above 2 ppm; cited from earlier work
# LAB strains [1] = experiment: Binding of pesticides to the cell wall of LAB (extent of binding); conditions: whole live LAB cells, initial 100 µg/mL, 24 h
# Description: Overnight cultures of LAB in MRS/MRS-F broth were centrifuged (3864× g, 15 min), and biomass was washed with sterile ultrapure water and centrifuged again. This procedure was repeated until the MRS/MRS-F broth was completely washed. Next, the biomass of whole live LAB cells was suspended in sterile ultrapure water with an individual pesticide solution (at a final concentration of 100 µg/mL, v/v) and thoroughly mixed. The density of LAB cells was 1.8–2.4 × 10^9 CFU/mL (6.0–8.0 according to McFarland standard). The positive controls (standards) were individual pesticides without LAB strains. Negative controls were LAB strains suspended in sterile ultrapure water without pesticides. The samples were incubated anaerobically at 30 °C for 24 h with continuous orbital shaking (240 r.p.m.) (LAUDA Varioshake VS 8 OE Shaker, Dr. R. Wobser Gmbh & Co., Lauda-Königshofen, […]). Finally, the supernatants containing residual pesticide were collected by centrifugation (10,733× g, 20 min) and were filtered using sterile syringe filters (0.22 μm) and frozen in sterile vials until analysis at −20 °C.
# Pesticides were analyzed according to Hafeez et al. (2015) using the HPLC-DAD technique with some modifications. For the qualitative–quantitative determination of pesticides, HPLC analysis was performed using a UHPLC+ Dionex UltiMate 3000 system (Thermo Fisher Scientific Inc., Waltham, MA, USA) equipped with a UV–Vis detector (Thermo Fisher Scientific Inc., Waltham, MA, USA) and NUCLEOSIL C18 column (4.6 × 250 mm, 5 µm particle size; Macherey-Nagel, Germany). Isocratic elution was carried out with 70/30 (v/v) acetonitrile/water as the mobile phase. The flow rate was set to 1.0 mL/min, and the column temperature was 25 °C. The injection volume was 20 µL. Detection and quantification were performed with two wavelengths: 219 nm for chlorpyrifos and coumaphos and 270 nm for imidacloprid. Quantification was performed using an external standard method. All measurements were made twice.
# [2] = tested on: prostate epithelial WPM-Y1 cell line; set-up: method as in PMID 33456462; conditions: 24 h, MTT assay; read-out: median inhibition value; cited from earlier work
# P. acidilactici 8/1 = experiment: Effect of pesticides on the growth of LAB (microtitration assay); type: cell-based, Pediococcus acidilactici; conditions: 100 µg/mL, 48 h incubation, versus non-exposed cells
# Description: (§1) The experiments were conducted in transparent 96-well polystyrene microplates. The final concentrations of tested pesticides were 20, 100, and 500 µg/mL. Each well was inoculated with an overnight culture of an individual LAB strain at the density of 1.8–2.4 × 10^9 CFU/mL (6.0–8.0 according to McFarland standard). Each strain was tested in 4 replicates. Negative controls were non-exposed bacterial cells in MRS or MRS-F broth. The test was performed at 30 or 37 °C for 48 h.
# [3] = tested on: cat (Felis catus) fibroblast cells; conditions: cited from earlier work
# P. pentosaceus 14/1 = experiment: Effect of pesticides on the growth of LAB (microtitration assay); type: cell-based, Pediococcus pentosaceus; conditions: 48 h incubation, versus non-exposed cells
# Description: as §1
# [4] = tested on: Enterococcus faecium E86, Lactococcus lactis subsp. lactis ATCC 11454, L. rhamnosus GG ATCC 53103, L. lactis Garvie ATCC 19256, Leuconostoc mesenteroides subsp.; set-up: method as in doi:10.1016/j.lwt.2019.02.037; conditions: 500 mg/L; cited from earlier work
# LAB strains [5] = tested on: LAB strains; set-up: method as in PMID 28324568; conditions: cited from earlier work
# L. plantarum ISO = tested on: L. plantarum ISO; set-up: method as in PMID 28578396; conditions: 295 µM, MRS medium, log phase; cited from earlier work
smiles,measurement,setting,value
Cl[C@H]1[C@H](Cl)[C@@H](Cl)[C@@H](Cl)[C@H](Cl)[C@H]1Cl [lindane],effect on lactic acid production by LAB,LAB,completely inhibited
O=[N+]([O-])NC1=NCCN1Cc1ccc(Cl)nc1 [imidacloprid],pesticide binding by LAB (highest extent),LAB strains [1],≤ 36%
same,pesticide binding by LAB (highest extent),LAB strains [1]; listed as Imidacloprid,about 36%
same,IC50,[2],23 µM
same,bacterial growth,P. acidilactici 8/1,101.84%
CCOC(=O)CC(SP(=S)(OC)OC)C(=O)OCC (stereo not shown) [Malathion],concentration at which maximum DNA damage was recorded,[3],45000 µM
CCOP(=S)(OCC)Oc1ccc2c(C)c(Cl)c(=O)oc2c1 [coumaphos],pesticide binding by LAB (highest extent),LAB strains [1],up to 57%
same,bacterial growth,P. pentosaceus 14/1; 500 µg/mL,100.6%
CCOP(=S)(OCC)Oc1nc(Cl)c(Cl)cc1Cl [chlorpyrifos],effect on growth of LAB,[4],did not affect the growth
same,chlorpyrifos concentration at which some LAB strains were able to grow,LAB strains [5],> 1400 µg/mL
same,bacterial growth,P. pentosaceus 14/1; 20 µg/mL,99.94%
same,effect on growth of L. plantarum ISO,L. plantarum ISO,significantly reduced the growth
ClC1=C(Cl)C2(Cl)C3C4CC(C5OC45)C3C1(Cl)C2(Cl)Cl (stereo not shown) [endrin],effect on lactic acid production by LAB,LAB,completely inhibited
